Laboratory results: patent publication US6087379A, “Cyclic amine derivatives” (Sankyo Company, Limited, priority 1996, dated 2000)
Counter-ions that a name gives are not always drawn.

Key:
male ICR mice = test: Test 1: Prolongation of Bleeding Time in Mice; assay type: in vivo, mouse (ICR); conditions: oral, 3 days (48, 24 and 4 hours before), ratio test compound-treated to control, cut-off 300 seconds
Procedure: Prolongation of Bleeding Time in Mice Groups of 10 male ICR mice (Charles River Japan Inc.) were used in the experiment. Test compound suspended in 5% gum arabic solution was orally administered for 3 days (48, 24 and 4 hours before the experiment). Each mouse was placed in a retainer, and the tail was transected at 5 mm from the tip, and then the tail (2 cm) was immersed in saline solution warmed at 37° C. Bleeding time was defined as the interval between the time of transection until bleeding stopped over a 15 seconds period. Bleeding times beyond 5 minutes were recorded as 5 minutes (300 seconds). Results were expressed as ratios of bleeding times of test compound-treated to non-treated (control) groups in which mice received 5% gum arabic solution.

platelet aggregation = test: Test 2: Antiaggregatory Action in Rats (ex vivo platelet aggregation in citrated blood, ADP or collagen); conditions: Rattus norvegicus, oral, 4 hours before, female SD rats, induced by ADP or collagen (which one not given)
Procedure: Antiaggregatory Action in Rats
Groups of 4 female SD rats (Charles River Japan Inc.) were used in the experiment Test compound suspended in 5% gum arabic solution was orally administered to rats 4 hours before the experiment. Control rats received 5% gum farabic solution. Platelet aggregation was measured according to the method of P. Lumley and P. P. A. Humphrey (J. Pharmacol. Methods, 6, 153-166 (1981)) with a slight modification. Blood (5.4 ml) was collected from the abdominal aorta of anesthetized rats using 3.8% (w/v) sodium citrate solution (0.6 ml) as an anticoagulant. An aliquot of citrated blood (1.2 ml) added to the cuvette was stirred (1000 rpm) at 37° C. Two minutes later, blood (0.3 ml) was taken from the cuvette, and the number of platelets was measured by an automatic hematology analyzer (E-4000, Toa Iyo Denshi), which was designated as the pre-aggregation number of platelets. To the remaining blood (0.9 ml) in the cuvette were added 0.1 ml of 0.05 mM adenosine-5'-diphosphate (ADP) or 0.06 mg/ml collagen to induce platelet aggregation. Two minutes after the addition of ADP or 4 minutes after the addition of collagen, blood (0.3 ml) was taken from the cuvette, and the number of platelets was measured, which was designated as the post-aggregation number of platelets. Platelet aggregation (%) was determined by the following equation:
100×(pre-aggregation number of platelets-post-aggregation number of
platelets)/pre-aggregation number of platelets
Antiaggregatory action of the test compound was determined comparing platelet aggregation of test compound-treated rats to that of control rats (without administration of test compound).

Human Platelets = test: Test 3: Antiaggregatory Action in Human Platelets (PRP, ADP-induced aggregation); assay type: cell-based; conditions: Platelet, 37° C.; for inhibition at 10 µg/mL: 10 μg/ml; for inhibition at 30 µg/mL: 30 μg/ml
Procedure: Antiaggregatory Action in Human Platelets
Platelet aggregation was measured using an automatic platelet aggregometer (PAM-8C, Mebanix) by the method of G.V.R. Born (Nature, 194, 927-929 (1962)) with a slight modification. Blood was collected from the antecubital vein of healthy volunteers who had not taken any medications for 2 weeks using 3.8% sodium citrate as an anticoagulant (1/9 volume of blood). Platelet-rich plasma (PRP) was obtained by centrifugation (CR5DL, Hitachi) at 200×g for 15 minutes at room temperature. Platelet-poor plasma (PPP) was obtained by further centrifugation of the remained blood at 2000×g for 10 minutes at room temperature. The number of platelets in PRP was measured by an automatic hematology analyzer (K-1000, Toa Iyo Denshi), and adjusted to 3×10^8 /ml using PPP. PRP prepared as described above was used for the platelet aggregation experiment. PRP (0.24 ml) was added to the cuvette and set in the platelet aggregometer. After pre-incubation for 1.5 minutes at 37° C., 0.01 ml of 0.25 mM ADP were added to the cuvette to initiate platelet aggregation. Platelet aggregation was monitored for 10 minutes.
Antiaggregatory action of test compound was expressed as inhibition (%) of aggregation comparing platelet aggregation of test compound to that of control (without addition of test compound).

Row | SMILES | bleeding time extending ratio (male ICR mice; 10 mg/kg) | bleeding time extending ratio (male ICR mice; 30 mg/kg) | inhibition at 10 mg/kg (platelet aggregation) | inhibition at 30 mg/kg (platelet aggregation) | inhibition at 10 µg/mL (Human Platelets) | inhibition at 30 µg/mL (Human Platelets)
1 | CC(=O)SC1CCN(C(C(=O)C2CC2)c2ccccc2F)CC1 (stereo not drawn) [Example 1(a), 4-Acetylthio-1-(α-cyclopropylcarbonyl-2-fluorobenzyl)piperidine] | 1.06 | 2.06 | 5.7% | 23.3% |  | 
2 | CCOC(=O)/C=C1\CN(C(C(=O)C2CC2)c2ccccc2F)CCC1SC(C)=O (stereo not drawn) [Example 10(a), (E)-4-Acetylthio-1-(α-cyclopropylcarbonyl-2-fluorobenzyl)-3-ethoxycarbonylmethylidenepiperidine] | > 2.75 | > 2.75 | 88.6% | 97.2% |  | 
3 | CCOC(=O)/C=C1\CN(C(C(=O)OC)c2ccccc2Cl)CCC1SC(C)=O (stereo not drawn) [Example 13, (E)-4-Acetylthio-1-(2-chloro-α-methoxycarbonylbenzyl)-3-ethoxycarbonylmethylidenepiperidine] | > 2.75 | > 2.75 |  |  |  | 
4 | COC(=O)C(c1ccccc1F)N1CCC(SC(=O)c2ccccc2)CC1 (stereo not drawn) [Example 28, 4-Benzoylthio-1-(2-fluoro-α-methoxycarbonylbenzyl)piperidine] | 1.24 | 2.16 |  | 39.6% |  | 
5 | CC(=O)SC1CCN(C(C(=O)C2CC2)c2ccccc2F)C/C1=C\C(=O)N(C)C (stereo not drawn) [Example 15(a), (E)-4-Acetylthio-1-(α-cyclopropylcarbonyl-2-fluorobenzyl)-3-(N,N-dimethylcarbamoyl)methylidenepiperidine] | 2.53 | > 2.75 | 18.6% | 95.9% |  | 
6 | Cl.O=C(C1CC1)C(c1ccccc1F)N1CCC(S)CC1 (stereo not drawn) [Example 1(b), 1-(α-Cyclopropylcarbonyl-2-fluorobenzyl)-4-mercaptopiperidine hydrochloride] |  | 1.46 |  |  | 48.6% | 70.6%
7 | O=C(O)/C=C1/CN(C(C(=O)C2CC2)c2ccccc2F)CCC1S (stereo not drawn) [Example 12, (Z)-1-(α-Cyclopropylcarbonyl-2-fluorobenzyl)-3-carboxymethylidene-4-mercaptopiperidine trifluoroacetate] |  |  |  |  | 41.2% | 68.9%
8 | CCCC(=O)SC1CCN(C(C(=O)C2CC2)c2ccccc2F)CC1 (stereo not drawn) [Example 18, 4-Butyrylthio-1-(α-cyclopropylcarbonyl-2-fluorobenzyl)piperidine] | 1.45 | 2.57 |  | 18.3% |  | 
